{"source": "patent US12350308B2", "about": "“Phosphorylcholine conjugates and uses thereof” (TPCERA LTD., priority 2013, dated 2025)", "key": {"THP-1 cells": {"tested_on": "THP-1 cells", "assay": "Shift of M1 polarized macrophages to M2 macrophages secreting IL-10", "type": "cell-based, human", "settings": "5 μg/ml for 72 hrs; in comparison to OVA-PC", "method": "The relative expression of the anti-inflammatory cytokine IL-10 was analyzed in human macrophages treated with TD-PC (TD-PC), and PC-Ovalbumin (OVA-PC). Specifically, THP-1 cells (a monocytic cell line established from human monocytic leukemia) were induced to differentiation into adherent macrophage-like phenotype (M0) by culturing the cells (10^5 cells/ml) in the presence of phorbol 12-myristate 13-acetate (PMA; 80 nM) and VD3 (100 nM). For inducing differentiation from M0 to M1 (M1 polarized macrophages) the cells were further incubated with LPS (1 μg/ml), IFNγ (20 ng/ml). For shifting from M1 to M2 macrophages (M2 polarized macrophages) the cells were washed and further incubated with IL-4 (10 ng/ml) and IL-13 (10 ng/ml) for 72 hours.\nIn order to determine whether TD-PC, TD, PC or PC-OVA can induce a shift form M1 cells to M2 macrophages secreting anti-inflammatory cytokine IL-10, M1 polarized macrophages were incubated with each molecule or conjugate at 5 μg/ml for 72 hrs."}, "CD4+CD25+FOXP3+ Tregs": {"tested_on": "CD4+CD25+FOXP3+ Tregs", "assay": "Treg expansion in spleen cells of lupus mice treated with TD-PC (FACS)", "type": "in vivo", "settings": "gating on CD4+ T cells; PBS 4%", "source_text": "The percentage of CD4+CD25+FOXP3+ Tregs phenotype subset in spleen cells following treatment with TD-PC, tuftsin derivative (SEQ ID NO: 25), PC or PBS, is elucidated in FIGS. 25A-25B."}, "male C57BL/6 mice": {"tested_on": "male C57BL/6 mice", "assay": "DSS induced acute colitis in mice", "type": "in vivo", "method": "The effect of PC-tuftsin derivative (SEQ ID NO: 25) on colitis development was determined in a mouse model subjected to induction of acute colitis by dextran sulfate sodium (DSS) treatment. Specifically, induction of colitis was carried out in male C57BL/6 mice (“colitis mice”) by supplementing the drinking water (2.5% wt/v) for five days with DSS (mol. wt. 36,000-50,000).\nTwo groups of mice were fed daily via oral ingestion using a feeding-needle, with PC-tuftsin derivative at a concentration of 500 μg/0.1 ml per mouse (treatment; n=10), or PBS (control; n=10). These compounds were given during 11 days starting two days before DSS administration.\nAssessment of colitis development was performed by monitoring body weight, rectal bleeding, stool consistency, and survival every second day. Intestinal bleeding was followed by Hemoccult test and observation of bleeding signs on the anus or gross bleeding. The daily disease activity index (DAI) was calculated by grading on a scale of zero to four the following parameters: change in weight (0, <1%; 1, 1-5%; 2, 5-10%; 3, 10— 15%; and 4, >15%), intestinal bleeding (0, negative; 4, positive), and stool consistency (0, normal; 2, loose stools; 4, diarrhea). The combined scores were then divided by three to obtain the final disease activity index. Ten days following disease induction, mice were sacrificed and the large intestine was collected and evaluated for colon length and microscopic colonic damage. For microscopic scoring, the proximal, medial, and distal portions of the colon and the cecum were fixed in 10% phosphate-buffered formalin. Paraffin-embedded sections were stained with H&E. The degree of histological damage and inflammation was graded in a blinded fashion by an expert pathologist"}, "[1]": {"tested_on": "IL-10+CD25+CD1d+ Breg cells", "assay": "Breg expansion in splenocytes of mice with established CIA (FACS)", "type": "in vivo", "settings": "isolated splenocytes; PBS 0.4%", "method": "The mean percentage of Breg cells in isolated splenocytes following treatment with TD-PC, PBS, TD (SEQ ID NO: 25), PC, TD+PC and None was measured within IL-10+CD25+CD1d+ subset. […] Representative data of IL-10+CD25+CD1d+ levels in splenocytes derived from TD-PC, PBS, TD (SEQ ID NO: 25), PC and TD+PC treated mice gating on IL-10+ B cells, are presented in FIG. 34A."}, "[2]": {"tested_on": "splenocytes derived from CIA mice", "assay": "Cytokine secretion in-vitro by splenocytes of CIA mice (oral and s.c. TD-PC)", "type": "in vivo", "settings": "splenocyte culture fluids", "method": "Cytokines play a major role in synovial inflammation while the major ones are IL-17, TNFα and IL-1. Secretion of pro-inflammatory (TNFα, IL-1β, IL-17) and anti-inflammatory cytokines (IL-10) by splenocytes derived from CIA mice treated with TD-PC or PBS (control), in-vitro, was evaluated.\nFurthermore, TD-PC increased the level of anti-inflammatory cytokine IL-10 in a significant manner compared to control mice (p<0.0001; FIG. 28D and Table 3)."}, "DBA/1 CIA mice": {"tested_on": "DBA/1 CIA mice", "assay": "Arthritis score in mice with established CIA (treatment from day 16)", "type": "in vivo", "source_text": "Rheumatoid Arthritis is a progressive joint deformation disease caused by severe inflammation. CIA mice were subjected to subcutaneous injections of TD-PC, tuftsin derivative (SEQ ID NO: 25), PC, a mix of TD and PC, or PBS, 3 times a week. […] Treatment started as day 16 after disease induction when disease symptoms were already notable. […] The significant reduction in arthritis score was illustrious from day 7 after treatment administration and lasted until day 35 (the day mice were sacrificed)."}, "[3]": {"settings": "500 μg/0.1 ml oral daily, vs PBS"}}, "note": "*1 amine or outer side, *2 acyl side, *3 side chain or, on linkers, in order; H or OH if unused. Where a SMILES comes first, the peptide text is derived from it. [ ]: non-standard residue; d: D form. X1 = C[N+](C)(C)CCOP(=O)([O-])Oc1ccc(N=Nc2cc(C[C@H](N[*:1])C(=O)[*:2])ccc2O)cc1"}
{"compound": "C[C@@H](O)[C@H](N)C(=O)N[C@@H](CCCCN)C(=O)N1CCC[C@H]1C(=O)N[C@@H](CCCNC(=N)N)C(=O)NCC(=O)N[C@@H](Cc1ccc(O)c(N=Nc2ccc(OP(=O)([O-])OCC[N+](C)(C)C)cc2)c1)C(=O)O", "note": "[TD-PC, Thr-Lys-Pro-Arg-Gly-Tyr-PC] (H-TKPRG[X1]-OH)", "values": [{"measurement": "shift of M1 macrophages to M2 macrophages secreting IL-10", "setting": "THP-1 cells", "result": "significant shift"}, {"measurement": "CD4+CD25+FOXP3+ Tregs in spleen cells", "setting": "CD4+CD25+FOXP3+ Tregs", "result": 18, "unit": "%"}, {"measurement": "daily disease activity index (DAI) score", "setting": "male C57BL/6 mice; 500 μg/0.1 ml oral daily, day 8, PBS 2.6 after 5 days", "result": "around 0.9"}, {"measurement": "loss of weight", "setting": "male C57BL/6 mice; [3]", "result": "significantly low"}, {"measurement": "rectal bleeding", "setting": "male C57BL/6 mice; [3]", "result": "significantly low"}, {"measurement": "survival", "setting": "male C57BL/6 mice; [3]", "result": "significantly higher survival"}, {"measurement": "colon length", "setting": "male C57BL/6 mice; PBS mice five-six cm", "result": "eight"}, {"measurement": "histological analysis of colon sections (H&E)", "setting": "male C57BL/6 mice; vs PBS", "result": "attenuated colon destruction"}, {"measurement": "mean percentage of IL-10+CD25+CD1d+ Breg cells", "setting": "[1]", "result": 13.73, "unit": "%"}, {"measurement": "IL-1β", "setting": "[2]; oral", "result": 183, "unit": "pg/mL"}, {"measurement": "IL-10", "setting": "[2]; oral", "result": 3605, "unit": "pg/mL"}, {"measurement": "IL-17", "setting": "[2]; oral", "result": 505, "unit": "pg/mL"}, {"measurement": "TNFα", "setting": "[2]; oral", "result": 633, "unit": "pg/mL"}, {"measurement": "IL-1β", "setting": "[2]; s.c.", "result": 198, "unit": "pg/mL"}, {"measurement": "IL-10", "setting": "[2]; s.c.", "result": 2917, "unit": "pg/mL"}, {"measurement": "IL-17", "setting": "[2]; s.c.", "result": 497, "unit": "pg/mL"}, {"measurement": "TNFα", "setting": "[2]; s.c.", "result": 621, "unit": "pg/mL"}, {"measurement": "mean arthritis score", "setting": "DBA/1 CIA mice; day 35, s.c. 3 times a week, PBS 13.8±0.45", "result": "6.8±0.8"}, {"measurement": "average arthritis score", "setting": "DBA/1 CIA mice; time 0 (treatment initiation, day 16 after disease induction), baseline", "result": "3.6±0.9"}]}
